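48-hour exposure; five concentrations; linearly interpolated endpoints. GI50: concentration for 50% inhibition of growth.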 Activity calls are given as the source filed them. No stated cut-off is given here; in the data, active = GI50 up to about 1.1 µM and inactive = higher.
What was measured:
Test in all cases: growth of human tumour cells (NCI), 48 h
A498 = system: A498
A549 = system: A549
CAKI-1 = system: CAKI-1
COLO 205 = system: COLO 205
DU-145 = system: DU-145
EKVX = system: EKVX
HCT-116 = system: HCT-116
HCT-15 = system: HCT-15
HT-29 = system: HT-29
MCF7 = system: MCF7
MDA-MB-435 = system: MDA-MB-435
NCI-H522 = system: NCI-H522
OVCAR-4 = system: OVCAR-4
OVCAR-8 = system: OVCAR-8
RPMI-8226 = system: RPMI-8226
SK-MEL-5 = system: SK-MEL-5
SK-OV-3 = system: SK-OV-3
SN12C = system: SN12C
TK-10 = system: TK-10
U-251 = system: U-251

With O=C(/C=C/c1ccc([N+](=O)[O-])cc1)c1nc2ccccc2[nH]1 the GI50 (A498) was 1.73 µM (inactive), the GI50 (A549) was > 45.9 µM (inactive) and the GI50 (CAKI-1) was 4.23 µM (inactive). The GI50 (COLO 205) was 58.7 µM (inactive), the GI50 (DU-145) was 97.3 µM (inactive) and the GI50 (EKVX) was 61.5 µM (inactive). The GI50 (HCT-116) was 1.88 µM (inactive), the GI50 (HCT-15) was 33 µM and the GI50 (HT-29) was 38.5 µM (inactive). For the same molecule, the GI50 (MCF7) was 2.21 µM (inactive), the GI50 (MDA-MB-435) was > 72.3 µM (inactive) and the GI50 (NCI-H522) was 32.9 µM (inactive). The GI50 (OVCAR-4) was > 66.1 µM (inactive), the GI50 (OVCAR-8) was > 70.5 µM (inactive) and the GI50 (RPMI-8226) was 5.73 µM (inactive). The GI50 (SK-MEL-5) was 52.2 µM (inactive), the GI50 (SK-OV-3) was > 100 µM (inactive) and the GI50 (SN12C) was > 100 µM (inactive). For the same molecule, the GI50 (TK-10) was 3.57 µM (inactive) and the GI50 (U-251) was 13.2 µM (inactive).
O=C(O)CC(Nc1ccccc1)C(=O)O (stereo not given) was tested, and the GI50 (A498) was > 100 µM (inactive), the GI50 (A549) was > 100 µM (inactive) and the GI50 (CAKI-1) was > 100 µM (inactive). The GI50 (COLO 205) was > 100 µM (inactive), the GI50 (DU-145) was > 100 µM (inactive) and the GI50 (EKVX) was > 100 µM (inactive). For the same molecule, the GI50 (HCT-116) was > 100 µM (inactive), the GI50 (HCT-15) was greater than 100 µM and the GI50 (HT-29) was > 100 µM (inactive). For the same molecule, the GI50 (MCF7) was > 100 µM (inactive), the GI50 (MDA-MB-435) was > 100 µM (inactive) and the GI50 (NCI-H522) was > 100 µM (inactive). For the same molecule, the GI50 (OVCAR-4) was > 100 µM (inactive), the GI50 (OVCAR-8) was > 100 µM (inactive) and the GI50 (RPMI-8226) was > 100 µM (inactive). For the same molecule, the GI50 (SK-MEL-5) was > 100 µM (inactive), the GI50 (SK-OV-3) was > 100 µM (inactive) and the GI50 (SN12C) was > 100 µM (inactive). For the same molecule, the GI50 (TK-10) was > 100 µM (inactive) and the GI50 (U-251) was > 100 µM (inactive).
N#CC(=C1CCCCC1)c1nc2ccccc2o1 was tested, and the GI50 (A498) was > 100 µM (inactive), the GI50 (A549) was 51.1 µM (inactive) and the GI50 (CAKI-1) was 64.1 µM (inactive). The GI50 (COLO 205) was 19.6 µM (inactive), the GI50 (DU-145) was > 100 µM (inactive) and the GI50 (EKVX) was 34.5 µM (inactive). The GI50 (HCT-116) was 55.3 µM (inactive), the GI50 (HCT-15) was 49.4 µM and the GI50 (HT-29) was 61.5 µM (inactive). The GI50 (MCF7) was 53.1 µM (inactive), the GI50 (MDA-MB-435) was > 100 µM (inactive) and the GI50 (NCI-H522) was 20.6 µM (inactive). The GI50 (OVCAR-4) was 52.8 µM (inactive), the GI50 (OVCAR-8) was 47.4 µM (inactive) and the GI50 (RPMI-8226) was 25.9 µM (inactive). For the same molecule, the GI50 (SK-MEL-5) was 41.4 µM (inactive), the GI50 (SK-OV-3) was > 100 µM (inactive) and the GI50 (SN12C) was > 100 µM (inactive). For the same molecule, the GI50 (TK-10) was > 100 µM (inactive) and the GI50 (U-251) was 57.9 µM (inactive).
